Broadly, the LD50 is the dose expected to kill half of the subjects tested.

For data set [1], the system named is experimental liver damage. Kind of data set: hexobarbitone sleep test (experimental liver damage by carbon tetrachloride). To be noted: rats. It counts as in vivo. As for the experimental part:
A standard testing process for pharmacological effect for experimental liver damage is the hexobarbitone sleep test, whose execution is described among others in a work by G. Vogel et al. in the Arzneimittelforschung, volume 25 (1975), pp. 82-89 and pp. 179-188. For this purpose 100 mg/kg of the compound to be tested were given to rats in groups each of 15 animals in carboxymethyl cellulose intraperitoneally and 90 minutes later 0.3 ml/kg carbon tetrachloride in olive oil by means of a throat probe. The rats were anaesthetised 48 hours later by intraperitoneal dosing of 70 mg/kg of hexabarbitone and the sleep duration was determined: […]

In another data set the test system is mice. Briefly: α amanitine test (mortality). The format is in vivo. Particulars: 20 per group, 50 mg/kg i.v., 0.7 mg/kg α amanitine i.p. 1 h later, observed 7 days. As for the experimental part:
(§1) These tests have been described in the already-quoted work by G. Vogel et al. published in Arzneimittelforschung, volume 25 (1975), pages 82 to 89 and 179 to 188.
In the α amanitine test the mice received in groups of 20 animals each 50 mg/kg of N-(5-(trans-2,3-dihydro-7-methoxy-3-methyl-5-(E)-propenylbenzofuran-2-yl)-2--hydroxy-3-methoxyphenyl-methyl)-N) (2-hydroxyethyl)-N-methyl ammonium chloride and for comparison Silymarine intravenously and an hour later 0.7 mg/kg of α amanitine intraperitoneally.

Data set [2] concerns serum enzymes GOT and GPT. Briefly: galactosamine test (liver protection, serum enzymes GOT and GPT). Particulars: rats. It counts as in vivo. The protocol: as §1
In the galactosamine tests the rats received in groups each of 15 animals 100 mg/kg of the compound to be tested N-(5-(trans-2,3-dihydro-7-methoxy-3-methyl-5-(E)-propenylbenzofuran-2-yl)- 2-hydroxy-3-methoxy-phenylmethyl)-N-(2-hydroxyethyl)-N-methyl-ammonium chloride and for comparison purposes Silymarine in the tragacanth suspension perorally, one hour later interperitoneally 350 mg/kg of galactosamine hydrochloride and 24 hours later blood samples were taken for determining the serum enzymes GOT and GPT.

Data set [3] in a line: toxicologic investigations (LD50). To be noted: rat, in vivo, po; rats, peroral application. The source says:
The toxicologic investigations indicate a good compatibility of the compounds produced by the process according to the invention.

Where [4] appears, read: 100 mg/kg perorally, enzyme GPT.
Where [5] appears, read: 15 per group, 100 mg/kg perorally in tragacanth suspension, 350 mg/kg galactosamine hydrochloride i.p. 1 h later, blood samples 24 h later.

Take `C/C=C/c1cc(OC)c2c(c1)[C@@H](C)[C@H](c1ccc(O)c(OC)c1)O2` (relative stereo) [dehydrodiisoeugenol, trans-2,3-dihydro-2-(4-hydroxy-3-methoxyphenyl)-7-methoxy-3-methyl-5-(E)-propenylbenzofurane]: the “statistical significance of the effect (sleep duration)” value in data set [1] (100 mg/kg i.p., carbon tetrachloride) is “highly significant”. Moreover, in data set [1] (15 per group, 100 mg/kg i.p. in carboxymethyl cellulose, 0.3 ml/kg carbon tetrachloride 90 min later, 70 mg/kg hexobarbitone i.p. after 48 h), the sleep duration came out at 97 min.

In the case of `C/C=C/c1cc(OC)c2c(c1)[C@@H](C)[C@H](c1cc(CN(C)CCO)c(O)c(OC)c1)O2.Cl` (relative stereo) [N-(5-(trans-2,3-dihydro-7-methoxy-3-methyl-5-(E)-propenylbenzofuran-2-yl)-2-hydroxy-3-methoxy-phenylmethyl)-N-(2-hydroxyethyl)-N-methyl-ammonium chloride], the mortality rate in the data set on mice amounted to 20%. In addition, in data set [2] (setting [4]), the “effect on GPT compared with Silymarine” value is “clearly better than that of Silymarine” and the “statistical significance of the effect on GPT” value is “highly significant”. In data set [2] (setting [5]), this compound displayed a GOT of 422 and a GPT of 185. Also, the LD50 in data set [3] is 4000 to 16000 mg/kg.

These data come from patent US4256764A, “Process for making derivatives of dimers of isoeugenol” (PLC Pharmaceutical Licenses Co. Ltd., priority 1978, dated 1981).
